Laboratory results: ChEMBL document CHEMBL1145942, “Three-dimensional quantitative structure-activity relationship analyses of peptide substrates of the mammalian H+/peptide cotransporter PEPT1” (J Med Chem, 2003)
Where a SMILES comes first, the peptide text is derived from it. [ ]: non-standard residue; d: D form. The star is where a group is joined. Bip = N[C@@H](Cc1ccc(-c2ccccc2)cc1)C(=O)O; Pip = O=C(O)[C@@H]1CCCCN1; NMeA = CN[C@@H](C)C(=O)O; Nle = CCCC[C@H](N)C(=O)O; Orn = NCCC[C@H](N)C(=O)O; Abu = CC[C@H](N)C(=O)O; Cbz = O=C(OCc1ccccc1)*; Boc = CC(C)(C)OC(=O)*; Aib = CC(C)(N)C(=O)O; Sar = CNCC(=O)O

molecular target: T1, Solute carrier family 15 member 1 (Homo sapiens, UniProt P46059); assay: Inhibition constant (Ki) for human intestinal peptide carrier
T1 sequence (P46059 whole entry): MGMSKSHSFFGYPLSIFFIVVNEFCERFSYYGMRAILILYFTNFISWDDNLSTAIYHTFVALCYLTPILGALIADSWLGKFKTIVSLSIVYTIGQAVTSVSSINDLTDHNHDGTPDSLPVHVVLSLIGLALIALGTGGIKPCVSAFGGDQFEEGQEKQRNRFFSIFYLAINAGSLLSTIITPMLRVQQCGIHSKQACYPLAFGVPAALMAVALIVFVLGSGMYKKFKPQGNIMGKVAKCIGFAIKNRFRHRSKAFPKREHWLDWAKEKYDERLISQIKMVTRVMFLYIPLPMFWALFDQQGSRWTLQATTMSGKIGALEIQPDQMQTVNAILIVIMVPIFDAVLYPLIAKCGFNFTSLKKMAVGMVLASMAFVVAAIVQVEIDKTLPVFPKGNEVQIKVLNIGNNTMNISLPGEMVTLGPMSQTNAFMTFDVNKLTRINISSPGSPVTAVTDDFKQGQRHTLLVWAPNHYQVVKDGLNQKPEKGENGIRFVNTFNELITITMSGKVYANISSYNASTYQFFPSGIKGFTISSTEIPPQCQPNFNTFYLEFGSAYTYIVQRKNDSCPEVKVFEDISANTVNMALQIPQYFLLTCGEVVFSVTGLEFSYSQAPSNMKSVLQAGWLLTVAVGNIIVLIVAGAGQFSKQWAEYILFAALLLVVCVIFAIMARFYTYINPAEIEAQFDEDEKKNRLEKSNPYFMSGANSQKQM

| Ki [µM] | Structure (SMILES) |
| --- | --- |
| 1800 | CN[C@@H](C)C(=O)N[C@@H](C)C(=O)O (H-[NMeA]-Ala-OH) |
| 290 | CC(N)C(=O)Nc1cccc(-c2ccccc2)c1 (configuration not stated) |
| 90 | N[C@@H](Cc1ccc(O)cc1)C(=O)N[C@@H](Cc1ccccc1)C(=O)O (H-Tyr-Phe-OH) |
| 5400 | CC1NC(=O)C(CCCCN)NC1=O (configuration not stated) |
| 400 | CC(C)CC(NC(=O)C(O)C(N)Cc1ccccc1)C(=O)O (configuration not stated) |
| 22000 | O=C(O)CNC(=O)[C@@H]1CCCN1 (H-Pro-Gly-OH) |
| 3100 | CC(N)C(=O)Nc1c(F)c(F)c(F)c(F)c1F (configuration not stated) |
| 100 | CC(C)[C@H](N)C(=O)N[C@@H](Cc1ccc(O)cc1)C(=O)O (H-Val-Tyr-OH) |
| 330 | CC(N)C(=S)N1CCCC1C(=O)O (configuration not stated) |
| 320 | C[C@H](N)C(=O)N[C@@H](CCC(=O)O)C(=O)O (H-Ala-Glu-OH) |
| 4200 | C[C@H](N)C(=O)N[C@H](C)C(=O)O (H-Ala-[dA]-OH) |
| 350 | NCC(=O)N[C@@H](CC(=O)O)C(=O)O (H-Gly-Asp-OH) |
| 10 | CC(NC(=O)C(N)Cc1ccc(OCc2ccccc2)cc1)C(=O)O (configuration not stated) |
| 60 | CC(C)[C@H](N)C(=O)N1CCC[C@H]1C(=O)O (H-Val-Pro-OH) |
| 150 | C[C@H](N)C(=O)N[C@@H](Cc1ccc(O)cc1)C(=O)O (H-Ala-Tyr-OH) |
| 160 | CCCC[C@H](N)C(=O)N1CCC[C@H]1C(=O)O (H-[Nle]-Pro-OH) |
| 20 | C[C@H](NC(=O)[C@@H](N)Cc1ccc(-c2ccccc2)cc1)C(=O)O (H-[Bip]-Ala-OH) |
| 2800 | CC(N)C(=O)Nc1ccccc1C(=O)O (configuration not stated) |
| 1600 | CNCC(=O)N1CCC[C@H]1C(=O)O (H-[Sar]-Pro-OH) |
| 320 | C[C@H](NC(=O)[C@@H](N)CC(=O)O)C(=O)O (H-Asp-Ala-OH) |
| > 30000 | NCCC(=O)NCCC(=O)O |
| 20000 | O=C(O)CC[C@H](NC(=O)[C@@H]1CCCN1)C(=O)O (H-Pro-Glu-OH) |
| 6900 | COC(=O)c1cccc(NC(=O)C(C)N)c1 (configuration not stated) |
| 1100 | COC(=O)c1ccc(NC(=O)C(C)N)cc1 (configuration not stated) |
| > 30000 | C[C@@H](N)C(=O)N1CCC[C@@H]1C(=O)O |
| 150 | C[C@H](N)C(=O)N1CCC[C@H]1C(=O)O |

| Ki [µM] | Structure (SMILES) |
| --- | --- |
| 330 | CC(N)C(=O)Nc1ccc(Cl)cc1 (configuration not stated) |
| 1000 | NCC(=O)NCC(=O)O (H-Gly-Gly-OH) |
| 200 | N[C@@H](CS)C(=O)NCC(=O)O |
| 16600 | CC(N)C(=O)Nc1ccccc1-c1ccccc1 (configuration not stated) |
| 12900 | CC(N)C(=O)N1CCCCC1 (configuration not stated) |
| > 30000 | C[C@@H](N)C(=O)N[C@H](C)C(=O)O (H-[dA]-[dA]-OH) |
| 15100 | C[C@@H](N)C(=O)N1CCC[C@H]1C(=O)O (stereo in doubt; 69) |
| 120 | C[C@H](N)C(=O)N[C@@H](Cc1ccc(Cc2ccccc2)cc1)C(=O)O |
| 210 | CN(CC(=O)O)C(=O)[C@@H](N)Cc1ccccc1 |
| 140 | C[C@H](NC(=O)[C@@H](N)CO)C(=O)O (H-Ser-Ala-OH) |
| 6300 | CCC(C)C(N)C(=O)N1CCSC1 (configuration not stated) |
| 300 | NCC(=O)N1CCC[C@H]1C(=O)O [GLYCYL PROLINE] (H-Gly-Pro-OH) |
| 90 | CCCC[C@H](NC(=O)[C@H](C)N)C(=O)O (H-Ala-[Nle]-OH) |
| 20 | C[C@H](NC(=O)[C@@H](N)Cc1ccc(Cc2ccccc2)cc1)C(=O)O |
| 1500 | CC(N)C(=O)NC1CCCCC1 (configuration not stated) |
| 120 | CC(C)C[C@H](N)C(=O)N[C@@H](C)C(=O)O [LEU-ALA] (H-Leu-Ala-OH) |
| 140 | CCCC[C@H](N)C(=O)N[C@@H](C)C(=O)O (H-[Nle]-Ala-OH) |
| 330 | C[C@H](N)C(=O)N[C@@H](Cc1c[nH]cn1)C(=O)O (H-Ala-His-OH) |
| 5400 | C[C@H](NC(=O)[C@@H](N)CC(=O)O)C(N)=O (H-Asp-Ala-NH2) |
| 2900 | CC(N)C(=O)Nc1ccccc1 (configuration not stated) |
| 14000 | O=C(O)[C@H](CO)NC(=O)[C@@H]1CCCN1 (H-Pro-Ser-OH) |
| 5620 | CCC(C)C(N)C(=O)N1CCCCC1 (configuration not stated) |
| 14100 | CC(N)C(=O)NCc1ccccc1 (configuration not stated) |
| 1900 | O=C(O)[C@H](Cc1ccccc1)NC(=O)[C@@H]1CCCN1 (H-Pro-Phe-OH) |
| 4800 | CC(NC(=O)CCN)C(=O)O (configuration not stated) |
| 9100 | CC(N)C(=O)Nc1ccc(C(=O)O)cc1 (configuration not stated) |

| Ki [µM] | Structure (SMILES) |
| --- | --- |
| 1200 | CC(N)C(=O)NCCS(=O)(=O)O (configuration not stated) |
| 4900 | C[C@@H](N)C(=O)N1CCC[C@H]1C(=O)O (stereo in doubt; 56) |
| 140 | C[C@H](N)C(=O)N[C@@H](CO)C(=O)O (H-Ala-Ser-OH) |
| 11000 | CC(N)C(=O)N1CCSC1 (configuration not stated) |
| 130 | N[C@@H](CO)C(=O)N1CCC[C@H]1C(=O)O (H-Ser-Pro-OH) |
| > 30000 | C[C@H](NC(=O)[C@H](C)NC(=O)OC(C)(C)C)C(=O)O (Boc-Ala-Ala-OH) |
| 140 | N[C@@H](CCC(=O)O)C(=O)N1CCC[C@H]1C(=O)O (H-Glu-Pro-OH) |
| 1400 | CC(NC(=O)[C@H](N)Cc1ccc(OCc2ccccc2)cc1)C(=O)O (some centres not stated) |
| 2300 | CC1NC(=O)C(CCCN)NC1=O (configuration not stated) |
| 110 | N[C@@H](Cc1ccccc1)C(=O)N[C@@H](Cc1ccccc1)C(=O)O (H-Phe-Phe-OH) |
| 160 | N[C@@H](Cc1ccc(O)cc1)C(=O)N1CCC[C@H]1C(=O)O (H-Tyr-Pro-OH) |
| 470 | CC(C)C[C@H](NC(=O)[C@@H]1CCCN1)C(=O)O (H-Pro-Leu-OH) |
| 250 | C[C@H](N)C(=O)N(C)CC(=O)O (H-Ala-[Sar]-OH) |
| 410 | N[C@@H](CC(=O)O)C(=O)N[C@@H](CC(=O)O)C(=O)O (H-Asp-Asp-OH) |
| 1000 | NCC(=O)N[C@@H](Cc1c[nH]cn1)C(=O)O (H-Gly-His-OH) |
| 7800 | CC(N)C(=O)Nc1ccccc1Cl (configuration not stated) |
| 250 | C[C@H](NC(=O)[C@@H](N)CCC(=O)O)C(=O)O (H-Glu-Ala-OH) |
| 1200 | C[C@H](N)C(=O)NC(C)(C)C(=O)O (H-Ala-[Aib]-OH) |
| 790 | NCC(=O)CCC(=O)O [AMINOLEVULINIC ACID] |
| 130 | N[C@@H](Cc1cc2ccccc2[nH]1)C(=O)N1CCC[C@H]1C(=O)O |
| 8300 | C[C@@H](NC(=O)[C@@H](N)CC(=O)O)C(=O)OCc1ccccc1 |
| 140 | C[C@H](N)C(=O)NCC(=O)O (H-Ala-Gly-OH) |
| 410 | Cc1cccc(NC(=O)C(C)N)c1 (configuration not stated) |
| 110 | CC(C)C[C@H](N)C(=O)N1CCC[C@H]1C(=O)O (H-Leu-Pro-OH) |
| 260 | C[C@H](N)C(=O)N[C@@H](CC(=O)O)C(=O)O (H-Ala-Asp-OH) |
| 310 | CC(N)C(=O)Nc1cccc(C(=O)O)c1 (configuration not stated) |

| Ki [µM] | Structure (SMILES) |
| --- | --- |
| 480 | C[C@H](NC(=O)[C@@H](N)Cc1c[nH]cn1)C(=O)O (H-His-Ala-OH) |
| 60 | C[C@H](N)C(=O)N1CCCC[C@H]1C(=O)O (H-Ala-[Pip]-OH) |
| 160 | C[C@H](NC(=O)[C@@H](N)Cc1cc2ccccc2[nH]1)C(=O)O |
| 90 | CC(C)[C@H](N)C(=O)N[C@@H](C)C(=O)O (H-Val-Ala-OH) |
| 7300 | NCCC(=O)NCC(=O)O |
| 32000 | CNCC(=O)N(C)CC(=O)O |
| 5600 | C[C@H](NC(=O)[C@H](C)NC(=O)OCc1ccccc1)C(=O)O (Cbz-Ala-Ala-OH) |
| 70 | CC[C@H](NC(=O)[C@H](C)N)C(=O)O (H-Ala-[Abu]-OH) |
| 340 | Cc1ccc(NC(=O)C(C)N)cc1 (configuration not stated) |
| 160 | CC(C)C[C@H](NC(=O)CN)C(=O)O |
| 120 | CC(N)C(=O)NC(C)C(=O)O (configuration not stated) |
| 460 | CC(N)C(=O)Nc1cccc(Cl)c1 (configuration not stated) |
| 730 | O=C(O)[C@H](Cc1ccc(O)cc1)NC(=O)[C@@H]1CCCN1 (H-Pro-Tyr-OH) |
| 380 | CC(NC(=O)CN)C(=O)O (configuration not stated) |
| 9500 | C[C@H](NC(=O)[C@@H]1CCCN1)C(=O)O (H-Pro-Ala-OH) |
| > 30000 | CC(=O)N[C@@H](C)C(=O)N[C@@H](C)C(=O)O (Ac-Ala-Ala-OH) |
| 17400 | NCCCCC(=O)O [5-AMINOVALERIC ACID] |
| 830 | CN(CC(=O)O)C(=O)CN [GLYCYLSARCOSINE] (H-Gly-[Sar]-OH) |
| 980 | C[C@H](N)C(=O)N[C@@H](CCCN)C(=O)O (H-Ala-[Orn]-OH) |
| 90 | C[C@H](NC(=O)[C@@H](N)Cc1ccc(O)cc1)C(=O)O |
| 890 | COC(=O)c1ccccc1NC(=O)C(C)N (configuration not stated) |
| 2000 | C[C@H](NC(=O)[C@@H](C)N)C(=O)O (H-[dA]-Ala-OH) |
| 2700 | CC(N)C(=O)NCCC(=O)O (configuration not stated) |

| Structure (SMILES) | Ki [µM] |
| --- | --- |
| N[C@@H](Cc1ccccc1)C(=O)N1CCC[C@H]1C(=O)O (H-Phe-Pro-OH) | 130 |
